Columns and labels:
M1 muscarinic receptor = biological target: T1, M1 muscarinic receptor (Homo sapiens, UniProt P11229); assay: Functional mobilization of intracellular calcium (FLIPR) in M1-CHO cells; type: cell-based; conditions: Table 4; for Emax: 100% efficacy is the maximum response obtained with the Carbachol control
T1 construct: expressed in transfected cells; host or cells: CHO (M1-CHO)
T1 sequence (P11229 1-460): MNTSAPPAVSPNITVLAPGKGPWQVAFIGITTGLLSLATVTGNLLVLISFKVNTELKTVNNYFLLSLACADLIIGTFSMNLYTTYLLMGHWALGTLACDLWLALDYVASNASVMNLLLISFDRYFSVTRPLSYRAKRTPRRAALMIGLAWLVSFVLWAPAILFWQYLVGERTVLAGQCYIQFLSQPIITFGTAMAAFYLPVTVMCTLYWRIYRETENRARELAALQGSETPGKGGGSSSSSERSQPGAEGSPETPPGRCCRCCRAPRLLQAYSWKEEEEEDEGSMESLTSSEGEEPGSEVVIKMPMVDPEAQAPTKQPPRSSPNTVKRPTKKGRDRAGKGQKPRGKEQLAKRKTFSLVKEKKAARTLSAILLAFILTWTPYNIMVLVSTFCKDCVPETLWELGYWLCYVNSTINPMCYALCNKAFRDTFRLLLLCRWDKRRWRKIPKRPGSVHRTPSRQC
Method in brief: (§1)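 Measured via Fluo-3 fluorescence on a FLIPR, CHO cells with either muscarinic subtype received compound in 0.5% DMSO. Antagonism was assessed after 15 min pre-incubation followed by carbachol at each subtype's EC80; agonism from compound addition alone.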

M4 muscarinic receptor = biological target: T2, M4 muscarinic receptor (Homo sapiens, UniProt P08173); assay: Functional mobilization of intracellular calcium (FLIPR) in M4-CHO cells; type: cell-based; conditions: Table 4; for Emax: 100% efficacy is the maximum response obtained with the Carbachol control
T2 construct: expressed in transfected cells; host or cells: CHO (M4-CHO)
T2 sequence (P08173 1-479): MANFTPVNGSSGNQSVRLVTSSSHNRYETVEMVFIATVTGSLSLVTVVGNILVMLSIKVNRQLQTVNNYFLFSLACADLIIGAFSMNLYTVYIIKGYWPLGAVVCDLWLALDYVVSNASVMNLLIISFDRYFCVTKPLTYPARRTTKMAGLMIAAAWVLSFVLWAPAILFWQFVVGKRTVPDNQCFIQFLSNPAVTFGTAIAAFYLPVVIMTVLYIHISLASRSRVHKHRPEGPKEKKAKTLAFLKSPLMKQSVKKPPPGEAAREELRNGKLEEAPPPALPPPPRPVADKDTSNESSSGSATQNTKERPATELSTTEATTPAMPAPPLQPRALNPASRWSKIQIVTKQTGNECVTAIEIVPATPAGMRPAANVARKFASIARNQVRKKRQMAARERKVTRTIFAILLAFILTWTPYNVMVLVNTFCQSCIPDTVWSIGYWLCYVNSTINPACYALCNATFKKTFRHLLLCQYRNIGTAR
Method in brief: as §1

[1] = M1 receptor, calcium mobilization (FLIPR)
[2] = M4 receptor, calcium mobilization (FLIPR)

Row | Structure (SMILES) | Emax (M1 muscarinic receptor) | M1 Activity (M1 muscarinic receptor; modulating M1 receptor) | Emax (M4 muscarinic receptor) | M4 Activity (M4 muscarinic receptor; modulating M4 receptor) | M1 Activity (M1 muscarinic receptor; [1]) | M4 Activity (M4 muscarinic receptor; [2])
1 | CC(=O)N[C@H]1CC2(CCN(CC(=O)N3C[C@@H](C)O[C@@H](C)C3)CC2)c2ccccc21 [compound 782] | < 25% | x (activity was measured to be greater than 5.0 μM) | < 25% | x (activity was measured to be greater than 5.0 μM) |  | 
2 | CCOC(=O)N1CCC(N2CCC3(CC2)CC(=O)c2cc(C)ccc23)CC1 [compound 783] | 25 to 100% | xxx (activity was measured to be less than 2.0 μM) | 25 to 100% | xx (activity was measured to be between 2.0 μM and 5.0 μM) |  | 
3 | CC(=O)N[C@H]1CC2(CCN(CCC3=C(C)CCCC3(C)C)CC2)c2ccccc21 [compound 784] | < 25% | x (activity was measured to be greater than 5.0 μM) | < 25% | x (activity was measured to be greater than 5.0 μM) |  | 
4 | CCOC(=O)N1CCC(CN2CCC3(CC2)CN(C(C)=O)c2c(C)cccc23)CC1 [compound 785] | 25 to 100% | xx (activity was measured to be between 2.0 μM and 5.0 μM) | 25 to 100% | xxx (activity was measured to be less than 2.0 μM) |  | 
5 | O=C1CC2(CCN([C@@H]3C[C@@H]4CC[C@@H]3C4)CC2)c2cc(Cl)ccc21 [compound 787] | 25 to 100% | xxx (activity was measured to be less than 2.0 μM) | 25 to 100% | xxx (activity was measured to be less than 2.0 μM) |  | 
6 | Clc1ccc2c(c1)C1(CCN(CC3CC4C=CC3C4)CC1)C[C@@H]2NCC1CC2C=CC1C2 (stereo partly shown) [compound 788] | 25 to 100% | xx (activity was measured to be between 2.0 μM and 5.0 μM) | 25 to 100% | xx (activity was measured to be between 2.0 μM and 5.0 μM) |  | 
7 | CN(C)C(=O)N[C@H]1CCC2(CCN([C@@H]3C[C@@H]4CC[C@H]3C4)CC2)c2ccccc21 [compound 789] | 25 to 100% | x (activity was measured to be greater than 5.0 μM) | 25 to 100% | x (activity was measured to be greater than 5.0 μM) |  | 
8 | CN(C)C(=O)N1CC2(CCN(C3CCN(c4ncccn4)CC3)CC2)c2cc(F)ccc21 [compound 790] | 25 to 100% | xx (activity was measured to be between 2.0 μM and 5.0 μM) | 25 to 100% | xxx (activity was measured to be less than 2.0 μM) |  | 
9 | CN(C)C(=O)N1CC2(CCN(C3CCN(C(=O)c4ccncc4)CC3)CC2)c2cc(F)ccc21 [compound 791] | 25 to 100% | xx (activity was measured to be between 2.0 μM and 5.0 μM) | < 25% | x (activity was measured to be greater than 5.0 μM) |  | 
10 | CC(=O)N[C@H]1CC2(CCN(CC(=O)N3CCCCC3)CC2)c2ccccc21 [compound 792] | 25 to 100% | x (activity was measured to be greater than 5.0 μM) | 25 to 100% | x (activity was measured to be greater than 5.0 μM) |  | 
11 | CCC#CCOC(=O)N1CC[C@@H](CN2CCC3(CC2)CN(C(C)=O)c2cccc(C)c23)C1 [compound 793] | 25 to 100% | xxx (activity was measured to be less than 2.0 μM) | 25 to 100% | xxx (activity was measured to be less than 2.0 μM) |  | 
12 | CC(=O)N1CC2(CCN(C3CCN(c4ncc(C)s4)CC3)CC2)c2ccccc21 [compound 794] | < 25% | x (activity was measured to be greater than 5.0 μM) | < 25% | x (activity was measured to be greater than 5.0 μM) |  | 
13 | CN(C)C(=O)N1CC2(CCN(C3CCN(C(=O)c4cccnc4)CC3)CC2)c2cc(F)ccc21 [compound 795] | < 25% | xx (activity was measured to be between 2.0 μM and 5.0 μM) | < 25% | x (activity was measured to be greater than 5.0 μM) |  | 
14 | CC(=O)CN1CC2(CCN(C3CCCCC3)CC2)c2cc(F)ccc21 [compound 796] | 25 to 100% | xxx (activity was measured to be less than 2.0 μM) | 25 to 100% | xxx (activity was measured to be less than 2.0 μM) |  | 
15 | CCCC(=O)N[C@H]1CC2(CCN(CC3CCCCC3)CC2)c2ccccc21 [compound 797] | 25 to 100% | x (activity was measured to be greater than 5.0 μM) | 25 to 100% | xxx (activity was measured to be less than 2.0 μM) |  | 
16 | O=C(N[C@H]1CC2(CCN(CCC3CC4CC[C@@H]3C4)CC2)c2ccccc21)c1ccoc1 (stereo partly shown) [compound 798] | < 25% | x (activity was measured to be greater than 5.0 μM) | < 25% | x (activity was measured to be greater than 5.0 μM) |  | 
17 | CCOC(=O)N1CCC(N2CCC3(CC2)CN(C(C)=O)c2c(-c4ccccc4OC)cccc23)CC1 [compound 799] | < 25% | x (activity was measured to be greater than 5.0 μM) | < 25% | x (activity was measured to be greater than 5.0 μM) |  | 
18 | CCOC(=O)N1CCC(N2CCC3(CC2)CN(CC(=O)N(C)C)c2ccc(F)cc23)CC1 [compound 800] | 25 to 100% | xxx (activity was measured to be less than 2.0 μM) | 25 to 100% | xxx (activity was measured to be less than 2.0 μM) |  | 
19 | O=C(N[C@H]1CC2(CCN(C3CCCCC3)CC2)c2ccccc21)c1ccoc1 [compound 801] | < 25% | x (activity was measured to be greater than 5.0 μM) | < 25% | x (activity was measured to be greater than 5.0 μM) |  | 
20 | c1ccc2c(c1)CCCC21CCN(CC2CCCCC2)CC1 [compound 802] | 25 to 100% |  | 25 to 100% |  |  | 
21 | O=C(O)C1CC2(CCN(CC3CCCCC3)CC2)c2ccccc21 (stereo not shown) [compound 803] | < 25% |  | < 25% |  | x (activity was measured to be greater than 5.0 μM) | x (activity was measured to be greater than 5.0 μM)
22 | Cc1cc(C(=O)N2CCC(N3CCC4(CC3)CN(C(=O)N(C)C)c3ccc(F)cc34)CC2)no1 [compound 804] | < 25% |  | < 25% |  | x (activity was measured to be greater than 5.0 μM) | x (activity was measured to be greater than 5.0 μM)
23 | CC(CF)OC(=O)N1CC[C@@H](CN2CCC3(CC2)CN(C(=O)N(C)C)c2ccc(F)cc23)C1 (stereo partly shown) [compound 805] | 25 to 100% |  | 25 to 100% |  | xxx (activity was measured to be less than 2.0 μM) | xxx (activity was measured to be less than 2.0 μM)
24 | CC(=O)N[C@H]1CC2(CCN(CC(=O)N(C)C3CCN(C)CC3)CC2)c2ccccc21 [compound 806] | < 25% |  | < 25% |  | x (activity was measured to be greater than 5.0 μM) | x (activity was measured to be greater than 5.0 μM)

Reference: patent publication US7786141B2 (Vertex Pharmaceuticals Incorporated, priority 2004, dated 2010)
